Laboratory results reported in patent US6873914B2, “Methods and systems for analyzing complex biological systems” (Icoria, Inc., priority 2001, dated 2005).

Experiments:
[1] = tested on: Arabidopsis thaliana plants; assay: SOA1 phenotypic analysis of herbicide-treated Arabidopsis plants; type: in vivo; conditions: for Symptom Class: Arabidopsis sprayed with herbicide, phenotypes of the classes pictured in FIG. 12; for leafCurling (Dev.) / leafTwisting (Dev.) / leafWidth (Dev.) / matureLeafAnthocyanins (Dev.) / matureLeafChlorosis (Dev.) / matureLeafNecrosis (Dev.) / newLeafAnthocyanins (Dev.) / newLeafChlorosis (Dev.) / newLeafNecrosis (Dev.) / pointedLeaves (Dev.): numeric value standardized to mock treated plants; for tMic (Dev.): score for time required to exhibit full range of symptoms at the MIC; for characteristic symptoms (morphological phenotype): in words
Arabidopsis thaliana = assay: MOA1 gene expression profiling (22,000 gene array) of treated Arabidopsis; type: in vivo; conditions: for gene expression perturbations compared to the other treatments: MOA1, 1 hr; for No. of Lethal Genes Altered: regulated genes identified as essential for plant growth and development (internal database)
[2] = tested on: Saccharomyces cerevisiae wild type strain BY4743; assay: AF1 metabolite analysis (GC-MS, LC-MS) of yeast cells treated with antifungal drugs; type: cell-based

Compound: O=C(O)COc1ccc(Cl)cc1Cl [2,4-D]
- Symptom Class [1]: 5
- leafCurling (Dev.) [1]: 1
- leafTwisting (Dev.) [1]: 2
- leafWidth (Dev.) [1]: −1
- matureLeafAnthocyanins (Dev.) [1]: 1
- matureLeafChlorosis (Dev.) [1]: 2
- matureLeafNecrosis (Dev.) [1]: 0
- newLeafAnthocyanins (Dev.) [1]: 0
- newLeafChlorosis (Dev.) [1]: 1
- newLeafNecrosis (Dev.) [1]: 0
- pointedLeaves (Dev.) [1]: 0
- tMic (Dev.) [1]: 2

Compound: O=C(O)c1cc(Oc2ccc(C(F)(F)F)cc2Cl)ccc1[N+](=O)[O-] [Acifluorfen]
- characteristic symptoms (morphological phenotype) [1]: Necrotic leaf flecks

Compound: COC(=O)NS(=O)(=O)c1ccc(N)cc1 [Asulam]
- gene expression perturbations compared to the other treatments (Arabidopsis thaliana): fewest gene expression perturbations
- No. of Lethal Genes Altered (Arabidopsis thaliana): 5

Compound: CCNc1nc(Cl)nc(NC(C)C)n1 [Atrazine]
- characteristic symptoms (morphological phenotype) [1]: rapid and widespread leaf necrosis

Compound: CC(C)N1C(=O)c2ccccc2NS1(=O)=O [Bentazon]
- characteristic symptoms (morphological phenotype) [1]: rapid and widespread leaf necrosis

Compound: COC(=O)c1cc(Oc2ccc(Cl)cc2Cl)ccc1[N+](=O)[O-] [Bifenox]
- characteristic symptoms (morphological phenotype) [1]: Necrotic leaf flecks

Compound: COc1nc(C)nc(NC(=O)NS(=O)(=O)c2ccccc2Cl)n1 [Chlorsulfuron]
- characteristic symptoms (morphological phenotype) [1]: anthocyanin accumulation in the older leaves accompanied by chlorosis of the newly emerging leaves
- No. of Lethal Genes Altered (Arabidopsis thaliana): 8

Compound: c1cc[n+]2c(c1)-c1cccc[n+]1CC2 [Diquat]
- Symptom Class [1]: 7
- characteristic symptoms (morphological phenotype) [1]: rapid and widespread leaf necrosis
- leafCurling (Dev.) [1]: 2
- leafTwisting (Dev.) [1]: 0
- leafWidth (Dev.) [1]: −2
- matureLeafAnthocyanins (Dev.) [1]: 0
- matureLeafChlorosis (Dev.) [1]: 1
- matureLeafNecrosis (Dev.) [1]: 4
- newLeafAnthocyanins (Dev.) [1]: 0
- newLeafChlorosis (Dev.) [1]: 1
- newLeafNecrosis (Dev.) [1]: 4
- pointedLeaves (Dev.) [1]: 1
- tMic (Dev.) [1]: 2

Compound: CN(C)C(=O)Nc1ccc(Cl)c(Cl)c1 [Diuron]
- Symptom Class [1]: 7
- characteristic symptoms (morphological phenotype) [1]: rapid and widespread leaf necrosis
- leafCurling (Dev.) [1]: 1
- leafTwisting (Dev.) [1]: 0
- leafWidth (Dev.) [1]: −2
- matureLeafAnthocyanins (Dev.) [1]: 0
- matureLeafChlorosis (Dev.) [1]: 2
- matureLeafNecrosis (Dev.) [1]: 4
- newLeafAnthocyanins (Dev.) [1]: 0
- newLeafChlorosis (Dev.) [1]: 2
- newLeafNecrosis (Dev.) [1]: 4
- pointedLeaves (Dev.) [1]: 1
- tMic (Dev.) [1]: 1

Compound: OC(Cn1cncn1)(Cn1cncn1)c1ccc(F)cc1F [Fluconazole]
- Fold Change: abscisic acid ([2]; LC): 0
- Fold Change: adenosine ([2]; LC): 0

Compound: CC(C)C1(C)N=C(c2ncccc2C(=O)O)NC1=O (stereo not drawn) [Imazapyr]
- characteristic symptoms (morphological phenotype) [1]: anthocyanin accumulation in the older leaves accompanied by chlorosis of the newly emerging leaves

Compound: CCc1cnc(C2=NC(C)(C(C)C)C(=O)N2)c(C(=O)O)c1 (stereo not drawn) [Imazethapyr]
- characteristic symptoms (morphological phenotype) [1]: anthocyanin accumulation in the older leaves accompanied by chlorosis of the newly emerging leaves

Compound: CSc1nnc(C(C)(C)C)c(=O)n1N [Metribuzin]
- characteristic symptoms (morphological phenotype) [1]: rapid and widespread leaf necrosis

Compound: O=C(O)c1ccccc1C(=O)Nc1cccc2ccccc12 [Naptalam]
- gene expression perturbations compared to the other treatments (Arabidopsis thaliana): fewest gene expression perturbations
- No. of Lethal Genes Altered (Arabidopsis thaliana): 3

Compound: C[n+]1ccc(-c2cc[n+](C)cc2)cc1 [Paraquat]
- Symptom Class [1]: 7
- characteristic symptoms (morphological phenotype) [1]: rapid and widespread leaf necrosis

Compound: CC[C@@H]([C@H](C)O)n1ncn(-c2ccc(N3CCN(c4ccc(OC[C@@H]5CO[C@@](Cn6cncn6)(c6ccc(F)cc6F)C5)cc4)CC3)cc2)c1=O [Posaconazoie]
- Fold Change ([2]; metabolite luteolin, platform LC): 0

Compound: CC[C@@H]([C@H](C)O)n1ncn(-c2ccc(N3CCN(c4ccc(OC[C@@H]5CO[C@@](Cn6cncn6)(c6ccc(F)cc6F)C5)cc4)CC3)cc2)c1=O [Posaconazole]
- Fold Change ([2]; metabolite anthranilic acid, platform nLC): 0
- Fold Change ([2]; metabolite anthranilic acid, platform pLC): 0
- Fold Change ([2]; metabolite biotin, platform LC): 0

Compound: CC[C@@H]([C@H](C)O)n1ncn(-c2ccc(N3CCN(c4ccc(OC[C@@H]5CO[C@@](Cn6cncn6)(c6ccc(F)cc6F)C5)cc4)CC3)cc2)c1=O [Posaconazote]
- Fold Change, porphobilinogen ([2]; detected metabolite, platform nLC, p-Value 1): 0
